{"source": "PubChem BioAssay AID743136", "about": "(Broad Institute, 2013)", "key": {"[1]": {"test": "HepG2 cell cytotoxicity, dose response, cytotoxicity control, ATP luminescence, dry powder, Set2, 50 µM top (AID 743136)", "details": "HepG2 viability, CellTiter-Glo ATP luminescence, 72 h"}, "[2]": {"test_system": "HepG2 viability, CellTiter-Glo ATP luminescence, 72 h", "test": "HepG2 cell cytotoxicity, dose response, cytotoxicity control, ATP luminescence, dry powder, Set2, 50 µM top (AID 743136)"}}, "note": "“And” between values parts separate entries of the source, which are not always exact repeats. Equal values may be shown once. The source made the active and inactive calls.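 How the source made its calls: active means valid fitted curve with falling viability signal and AC50 at most twice the top tested concentration; inconclusive means flat curve with 30 to 70% signal loss, or poor fit; inactive means the rest, including opposite-direction effects.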", "data": [{"smiles": "Cc1c(C(=O)O)sc2nc(/C=C/c3cnc4ccccc4c3)[nH]c(=O)c12", "values": [{"measurement": "activity change, negative = cytotoxicity", "setting": "[1]; at 50 µM (top of the series)", "value": "-18.5% (inactive)"}]}, {"smiles": "Cc1c(C(=O)O)sc2nc(/C=C/c3cc4ccccc4cn3)[nH]c(=O)c12", "values": [{"measurement": "activity change, negative = cytotoxicity", "setting": "[1]; at 50 µM (top of the series)", "value": "-5.12% (inactive)"}]}, {"smiles": "COc1cccc(/C=C/c2nc3sc(C(=O)O)c(C)c3c(=O)[nH]2)c1", "values": [{"measurement": "activity change, negative = cytotoxicity", "setting": "[1]; at 50 µM (top of the series)", "value": "-15.1% (inactive)"}]}, {"smiles": "Cc1c(C(=O)O)sc2nc(/C=C/c3ccccc3)[nH]c(=O)c12", "values": [{"measurement": "activity change, negative = cytotoxicity", "setting": "[1]; at 50 µM (top of the series)", "value": "-17.2% (inactive)"}]}, {"smiles": "Cc1c(C(=O)O)sc2nc(/C=C/c3ccc4[nH]ccc4n3)[nH]c(=O)c12", "values": [{"measurement": "activity change, negative = cytotoxicity", "setting": "[1]; at 12 µM (top of the series)", "value": "2.05% (inactive)"}]}, {"smiles": "Cc1c(C(=O)O)sc2nc(/C=C/c3cccc(N)c3)[nH]c(=O)c12", "values": [{"measurement": "activity change, negative = cytotoxicity", "setting": "[1]; at 50 µM (top of the series)", "value": "-6.41% (inactive)"}]}, {"smiles": "Cc1c(C(=O)O)sc2nc(/C=C/c3ccccc3O)[nH]c(=O)c12", "values": [{"measurement": "activity change, negative = cytotoxicity", "setting": "[1]; at 50 µM (top of the series)", "value": "-7.61% (inactive)"}]}, {"smiles": "Cc1c(C(=O)O)sc2nc(/C=C/c3ccc4[nH]ccc4c3)[nH]c(=O)c12", "values": [{"measurement": "activity change, negative = cytotoxicity", "setting": "[1]; at 50 µM (top of the series)", "value": "1.56% (inactive)"}]}, {"smiles": "Cc1c(C(=O)O)sc2nc(/C=C/C=C/c3ccccc3)[nH]c(=O)c12", "values": [{"measurement": "activity change, negative = cytotoxicity", "setting": "[1]; at 50 µM (top of the series)", "value": "20.1% (inactive)"}]}, {"smiles": "Cc1c(C(=O)O)sc2nc(/C=C/c3cccnc3)[nH]c(=O)c12", "values": [{"measurement": "activity change, negative = cytotoxicity", "setting": "[1]; at 50 µM (top of the series)", "value": "-15.4% (inactive)"}]}, {"smiles": "Cc1c(C(=O)O)sc2nc(/C=C/c3ccc(O)cn3)[nH]c(=O)c12", "values": [{"measurement": "activity change, negative = cytotoxicity", "setting": "[1]; at 1.2 µM (top of the series)", "value": "-0.612% (inactive)"}]}, {"smiles": "Cc1c(C(=O)O)sc2nc(/C=C/c3cccc(C(=O)O)c3)[nH]c(=O)c12", "values": [{"measurement": "activity change, negative = cytotoxicity", "setting": "[1]; at 50 µM (top of the series)", "value": "-5.9% (inactive)"}]}, {"smiles": "Cc1c(C(=O)O)sc2nc(/C=C/c3cccc(N4CCOCC4)n3)[nH]c(=O)c12", "values": [{"measurement": "activity change, negative = cytotoxicity", "setting": "[1]; at 50 µM (top of the series)", "value": "-4.25% (inactive)"}]}, {"smiles": "Cc1c(C(=O)O)sc2nc(/C=C/c3ccnc4ccccc34)[nH]c(=O)c12", "values": [{"measurement": "activity change, negative = cytotoxicity", "setting": "[1]; at 50 µM (top of the series)", "value": "-5.63% (inactive)"}]}, {"smiles": "Cc1c(C(=O)O)sc2nc(/C=C/c3cccnc3N)[nH]c(=O)c12", "values": [{"measurement": "AC50", "setting": "[2]", "value": "> 24 µM (inactive)"}]}, {"smiles": "Cc1c(C(=O)O)sc2nc(/C=C/c3cccc(N4CCNCC4)c3)[nH]c(=O)c12", "values": [{"measurement": "activity change, negative = cytotoxicity", "setting": "[1]; at 50 µM (top of the series)", "value": "-21% (inactive)"}]}, {"smiles": "Cc1c(C(=O)O)sc2nc(/C=C/c3cccc(O)c3)[nH]c(=O)c12", "values": [{"measurement": "activity change, negative = cytotoxicity", "setting": "[1]; at 46 µM (top of the series)", "value": "1.28% (inactive)"}, {"measurement": "activity change, negative = cytotoxicity", "setting": "[1]; at 50 µM (top of the series)", "value": "-10.4% (inactive) and -7.42% (inactive)"}]}, {"smiles": "Cc1c(C(=O)O)sc2nc(/C=C/c3ccncc3)[nH]c(=O)c12", "values": [{"measurement": "activity change, negative = cytotoxicity", "setting": "[1]; at 50 µM (top of the series)", "value": "-2.2% (inactive)"}]}, {"smiles": "Cc1c(C(=O)O)sc2nc(CCc3cccc(O)c3)[nH]c(=O)c12", "values": [{"measurement": "activity change, negative = cytotoxicity", "setting": "[1]; at 50 µM (top of the series)", "value": "-14.1% (inactive)"}]}, {"smiles": "Cc1c(C(=O)O)sc2nc(/C=C/c3cccc(C(N)=O)c3)[nH]c(=O)c12", "values": [{"measurement": "activity change, negative = cytotoxicity", "setting": "[1]; at 50 µM (top of the series)", "value": "-16.7% (inactive)"}]}, {"smiles": "Cc1c(C(=O)O)sc2nc(/C=C/c3ccccn3)[nH]c(=O)c12", "values": [{"measurement": "activity change, negative = cytotoxicity", "setting": "[1]; at 50 µM (top of the series)", "value": "-16.2% (inactive)"}]}, {"smiles": "Cc1c(C(=O)O)sc2nc(/C=C/c3cccc(F)c3)[nH]c(=O)c12", "values": [{"measurement": "activity change, negative = cytotoxicity", "setting": "[1]; at 50 µM (top of the series)", "value": "-10.3% (inactive)"}]}, {"smiles": "Cc1c(C(=O)O)sc2nc(/C=C/c3cccc([N+](=O)[O-])c3)[nH]c(=O)c12", "values": [{"measurement": "activity change, negative = cytotoxicity", "setting": "[1]; at 50 µM (top of the series)", "value": "-30.8% (inactive)"}]}, {"smiles": "Cc1c(C(=O)O)sc2nc(/C=C/c3ccc(N)nc3)[nH]c(=O)c12", "values": [{"measurement": "activity change, negative = cytotoxicity", "setting": "[1]; at 50 µM (top of the series)", "value": "-9.16% (inactive)"}]}, {"smiles": "Cc1c(C(=O)O)sc2nc(/C=C/C3CC3)[nH]c(=O)c12", "values": [{"measurement": "activity change, negative = cytotoxicity", "setting": "[1]; at 50 µM (top of the series)", "value": "-1.5% (inactive)"}]}, {"smiles": "Cc1c(C(=O)O)sc2nc(/C=C/c3cccc(OC(F)(F)F)c3)[nH]c(=O)c12", "values": [{"measurement": "AC50", "setting": "[2]", "value": "> 100 µM (inactive)"}]}, {"smiles": "Cc1c(C(=O)O)sc2nc(/C=C/c3ccc4ccccc4c3)[nH]c(=O)c12", "values": [{"measurement": "activity change, negative = cytotoxicity", "setting": "[1]; at 50 µM (top of the series)", "value": "-8.19% (inactive)"}]}, {"smiles": "Cc1c(C(=O)O)sc2nc(/C=C/c3cccc(C(F)(F)F)c3)[nH]c(=O)c12", "values": [{"measurement": "activity change, negative = cytotoxicity", "setting": "[1]; at 50 µM (top of the series)", "value": "-10.9% (inactive)"}]}, {"smiles": "Cc1c(C(=O)O)sc2nc(/C=C/c3cccc(=O)[nH]3)[nH]c(=O)c12", "values": [{"measurement": "activity change, negative = cytotoxicity", "setting": "[1]; at 50 µM (top of the series)", "value": "-1.32% (inactive)"}]}, {"smiles": "Cc1c(C(=O)O)sc2nc(/C=C/c3ccc4cc[nH]c4c3)[nH]c(=O)c12", "values": [{"measurement": "activity change, negative = cytotoxicity", "setting": "[1]; at 50 µM (top of the series)", "value": "-21% (inactive)"}]}]}
